The source of these data is patent US5800809A, “Non-crosslinked acrylic polymers and non-crosslinked anion exchange resins” (priority 1992, dated 1998).

Details of series [1]: species or system CD-1 mouse. As to conditions: mouse, in vivo. As for the experimental part:
(3) Micronucleus test on mice.
test on mice HBS-107 was given orally at a dosage of
was prepared after 24, 48 and 72 hours

For series [2] the following is noted: rabbit, in vivo.
The conditions of series [3]: rat, in vivo.

In the case of “polyacryloyloxyethyl-N,N-dimethylbenzyl ammonium salt [Example 1]”, the “induction of micronucleus formation” value in series [1] was “No induction”. Also, in series [2], the “irritation (in words)” value is “not strong”. In addition, in series [3], the “urine volume, Na^+ and Cl^-” value is recorded as “Significant reduction”.
